Read-outs that look alike come from different tables or passages of the source.
Assays:
CH1cisR = test: Ovarian carcinoma cytotoxicity assay; type: cell-based; conditions: Homo sapiens, CH1cisR; cisplatin-resistant, 96 hours, sulphorhodamine B; read-out: IC50 CH1cisR
Experimental: (§1) Compounds of the invention (and Anthramycin as a comparison) were evaluated for their cytotoxic activity in ovarian cell lines by Dr Lloyd R. Kelland's group at The Institute of Cancer Research, Sutton, UK. The five cell lines investigated were SKOV-3, A2780/A2780cisR and CH1/CH1cisR (cis R denotes that the cell line is resistant to cisplatin).
(§2) Single viable cells were seeded in growth medium (160 μL) in […] microtitre plates and allowed to attach overnight. […] After 96 hours, the medium was removed and the remaining cells fixed by exposure to 10% trichloroacetic acid on ice for 30 minutes. The wells were then washed 3-4 times with tap water, air dried overnight and treated with 100 μL of sulphorhodamine B (0.4%) dissolved in 1% acetic acid. Staining was allowed to continue for 10-15 minutes, then the wells were washed 3-4 times with 1% acetic acid, air dried and then added to Tris base (100 μL of 10 mM). Plates were then shaken and absorbance readings at 540 nm were determined using a plate reader. By using the Quattro-Pro software package, the IC50 values were calculated from plots of concentration versus percentage absorbance (compared with 8 untreated wells).

SKOV-3 = test: Ovarian carcinoma cytotoxicity assay; type: cell-based; conditions: Homo sapiens, SK-OV-3; 96 hours, sulphorhodamine B; read-out: IC50 Skov3
Experimental: as §1, §2

CH1 = test: Ovarian carcinoma cytotoxicity assay; type: cell-based; conditions: Homo sapiens
Experimental: as §1, §2

NCI-H460 = test: NCI in vitro cytotoxicity screen; type: cell-based; conditions: Homo sapiens, NCI-H460, 48 h, read-out: LC50
Experimental: (§3) The National Cancer Institute (NCI), Bethesda, Md., USA has available an in vitro cytotoxicity screen which consists of approximately 60 human tumour cell lines against which compounds are tested at a minimum of five concentrations each differing 10-fold. A 48 hour continuous exposure protocol is used, where cell viability or growth is estimated with an SRB protein assay.
(§4) The test compounds were evaluated against approximately 60 human tumour cell lines. The NCI screening procedures were described in detail by Monks and co-workers (Monks, A et al., Journal of the National Cancer Institute, 1991, 83, 757). Briefly, cell suspensions were diluted according to the particular cell type and the expected target cell density (5000-40,000 cells per well based on cell growth characteristics), and added by pipette (100 μL) into 96-well microtitre plates. The cells were allowed a preincubation period of 24 hours at 37° C. for stabilisation. Dilutions at twice the intended test concentration were added at time zero in 100 μL aliquots to the wells. The test compounds were evaluated at five 10-fold dilutions (10^−4, 10^−5, 10^−6, 10^−7 and 10^−[…]). The test compounds were incubated for 48 hours in 5% CO2 atmosphere and 100% humidity. The cells were then assayed using the sulphorhodamine B assay. A plate reader was used to read the optical densities and a microcomputer processed the readings into LC50 values, which is the dosage required to kill half of the cells.

NCI-H522 = test: NCI in vitro cytotoxicity screen; type: cell-based; conditions: Homo sapiens, NCI-H522, 48 h, read-out: LC50
Experimental: as §3, §4

SK-MEL-2 = test: NCI in vitro cytotoxicity screen; type: cell-based; conditions: Homo sapiens, SK-MEL-2, 48 h, read-out: LC50
Experimental: as §3, §4

HCT-116 = test: NCI in vitro cytotoxicity screen; type: cell-based; conditions: Homo sapiens, HCT-116, 48 h, read-out: LC50
Experimental: as §3, §4

HCC-2998 = test: NCI in vitro cytotoxicity screen; type: cell-based; conditions: Homo sapiens, HCC 2998, 48 h, read-out: LC50
Experimental: as §3, §4

M14 = test: NCI in vitro cytotoxicity screen; type: cell-based; conditions: Homo sapiens, M14, 48 h, read-out: LC50
Experimental: as §3, §4

786-0 = test: NCI in vitro cytotoxicity screen; type: cell-based; conditions: Homo sapiens, 786-0, 48 h, read-out: LC50
Experimental: as §3, §4

A2780 = test: Ovarian carcinoma cytotoxicity assay; type: cell-based, human; conditions: Homo sapiens, A2780; 96 hours, sulphorhodamine B; read-out: IC50 A2780
Experimental: as §1, §2

A2780cisR = test: Ovarian carcinoma cytotoxicity assay; type: cell-based, human; conditions: Homo sapiens, A2780cisR
Experimental: as §1, §2

SNB-75 = test: NCI in vitro cytotoxicity screen; type: cell-based; conditions: Homo sapiens, SNB-75, 48 h, read-out: LC50
Experimental: as §3, §4

KM12 = test: NCI in vitro cytotoxicity screen; type: cell-based; conditions: Homo sapiens
Experimental: as §3, §4

MDA-MB-435 = test: NCI in vitro cytotoxicity screen; type: cell-based; conditions: Homo sapiens, MDA-MB-435, 48 h, read-out: LC50
Experimental: as §3, §4

HS 578T = test: NCI in vitro cytotoxicity screen; type: cell-based; conditions: Homo sapiens; HS 578T (Breast), 48 hour exposure, SRB assay; read-out: LC50 (the source's name)
Experimental: as §3, §4

SK-MEL-28 = test: NCI in vitro cytotoxicity screen; type: cell-based; conditions: Homo sapiens, SK-MEL-28, 48 h, read-out: LC50
Experimental: as §3, §4

COLO 205 = test: NCI in vitro cytotoxicity screen; type: cell-based; conditions: Homo sapiens, COLO 205, 48 h, read-out: LC50
Experimental: as §3, §4

RXF 393 = test: NCI in vitro cytotoxicity screen; type: cell-based; conditions: Homo sapiens, RXF 393, 48 h, read-out: LC50
Experimental: as §3, §4

MALME-3M = test: NCI in vitro cytotoxicity screen; type: cell-based; conditions: Homo sapiens, Malme-3M, 48 h, read-out: LC50
Experimental: as §3, §4

MDA-N = test: NCI in vitro cytotoxicity screen; type: cell-based; conditions: Homo sapiens, 48 h, read-out: LC50
Experimental: as §3, §4

LOX IMVI = test: NCI in vitro cytotoxicity screen; type: cell-based; conditions: Homo sapiens, 48 h, read-out: LC50
Experimental: as §3, §4

UACC-257 = test: NCI in vitro cytotoxicity screen; type: cell-based; conditions: Homo sapiens, UACC-257, 48 h, read-out: LC50
Experimental: as §3, §4

SK-MEL-5 = test: NCI in vitro cytotoxicity screen; type: cell-based; conditions: Homo sapiens, SK-MEL-5, 48 h, read-out: LC50
Experimental: as §3, §4

NCI-H23 = test: NCI in vitro cytotoxicity screen; type: cell-based; conditions: Homo sapiens, NCI-H23, 48 h, read-out: LC50
Experimental: as §3, §4

UACC-62 = test: NCI in vitro cytotoxicity screen; type: cell-based; conditions: Homo sapiens, UACC-62, 48 h, read-out: LC50
Experimental: as §3, §4

[1] = test system: human tumour cells cultivated in hollow fibres implanted in mice; test: NCI Hollow Fibre Assay; type: in vivo
From the text: The Biological testing Branch of the Developmental Therapeutics Program of the NCI has adopted a preliminary in vivo screening tool for assessing the potential anticancer activity of compounds identified by the large scale in vitro cell screen. For these assays, human tumour cells are cultivated in polyvinylidene (PVDF) hollow fibres, and a sample of each cell line is implanted into each of two physiologic compartments (intraperitoneal and subcutaneaous) in mice. Each test mouse received a total of 6 fibres (3 intraperitoneally and 3 subcutaneously) representing 3 distinct cancer cell lines. These mice are treated with potential antitumour compounds at each of 2 test doses by the intraperitoneal route using a QD×4 treatment schedule. Vehicle controls consist of 6 mice receiving the compound diluent only. The fibre cultures are collected on the day following the last day of treatment. To assess anticancer effects, the viable cell mass is determined for each of the cell lines using a formazyn dye (MTT) conversion assay. From this, the % T/C can be calculated using the average optical density of compound treated samples divided by the average optical; density of the vehicle controls. In addition, the net increase in cell mass can be determined for each sample, as a sample of fibre cultures are assessed for viable cell mass on the day of implantation into mice. Thus, the cytostatic and cytocidal capacities of the test compound can be assessed.
Generally, each compound is tested against a minimum of 12 human cancer cell lines. This represents a total of 4 experiments since each experiment contains 3 cell lines. The data are reported as % T/C for each of the 2 compound doses against each of the cell lines with separate values calculated for the intraperitoneal and subcutaneous samples.
Compounds are selected for further in vivo testing in standard subcutaneous xenograft models on the basis of several hollow fibre assay criteria. These include: (1) a % T/C of 50 or less in 10 of the 48 possible test combinations (12 cell lines×2 sites×2 Compound doses); (2) activity at a distance (intraperitoneal drug/subcutaneous culture) in a minimum of 4 of the 24 possible combinations; and/or (3) a net cell kill of 1 or more of the cell lines in either implant site. To simplify evaluation, a points system has been adopted which allows rapid evaluation of the activity of a given compound. For this, a value of 2 is assigned for each compound dose which results in a 50% or greater reduction in viable cell mass. The intraperitoneal and subcutaneous samples are scored separately so that criteria (1) and (2) can be evaluated. Compounds with a combined IP+SC score of 20, a SC score of 8 or a net cell kill of one or more cell lines are referred for xenograft testing. […] In addition to these criteria, other factors (e.g. unique structure, mechanism of action) may result in referral of a compound for xenograft testing without the compound meeting these criteria.

SF-539 = test: NCI in vitro cytotoxicity screen; type: cell-based; conditions: Homo sapiens, SF-539, 48 h, read-out: LC50
Experimental: as §3, §4

NCI-H226 = test: NCI in vitro cytotoxicity screen; type: cell-based; conditions: Homo sapiens, NCI-H226, 48 h, read-out: LC50
Experimental: as §3, §4

[2] = CH1, 96 hours, sulphorhodamine B, read-out: IC50 CH1
[3] = cisplatin-resistant, 96 hours, sulphorhodamine B, read-out: IC50 A2780cisR

Compound: COc1cc2c(cc1OCc1ccccc1)N=C[C@@H]1CC(CCO)=CN1C2=O [UP2052 (33)]
- IC50 (CH1cisR): 0.037 µM
- IC50 (SKOV-3): 0.105 µM
- IC50 (CH1; CH1, 96 h, read-out: IC50 CH1, 96 hours, sulphorhodamine B): 0.09 µM
- CC50 (NCI-H460): 3 µM
- CC50 (NCI-H522): 3.1 µM
- CC50 (SK-MEL-2): 0.5 µM
- CC50 (HCT-116): 1.1 µM
- CC50 (HCC-2998): 0.8 µM
- CC50 (M14): 2.7 µM
- CC50 (786-0): 3 µM
- IC50 (A2780): 0.07 µM
- IC50 (A2780cisR; 96 h, read-out: IC50 A2780cisR, cisplatin-resistant, 96 hours, sulphorhodamine B): 0.105 µM

Compound: Nc1ccc2c(c1)N=C[C@@H]1CCCN1C2=O [UP2028 (151), (11aS)-8-amino-1,2,3,11a-tetrahydro-5H-pyrrolo[2,1-c][1,4]benzodiazepin-5-one]
- CC50 (SNB-75): 8.2 µM
- CC50 (KM12; KM12 (Colon), 48 hour exposure, SRB assay, read-out: LC50 (the source's name)): 8.8 µM
- CC50 (MDA-MB-435): 7.2 µM
- CC50 (NCI-H522): 0.8 µM
- CC50 (HS 578T): 9.2 µM
- CC50 (SK-MEL-28): 8.1 µM
- CC50 (COLO 205): 5 µM
- CC50 (RXF 393): 0.7 µM
- CC50 (SK-MEL-2): 5.4 µM
- CC50 (MALME-3M): 5.7 µM

Compound: COc1ccc2c(c1)C(=O)N1CCC[C@H]1C=N2 (stereo in doubt) [UP2068 (96), 7-methoxy-1,2,3,11a-tetrahydro-5H-pyrrolo[2,1-c][1,4]benzodiazepin-5-one]
- IC50 (CH1cisR): 0.42 µM
- IC50 (SKOV-3): 0.76 µM
- IC50 (CH1; [2]): 0.52 µM
- CC50 (MDA-N): 6.3 µM
- CC50 (MDA-MB-435): 8.3 µM
- CC50 (NCI-H522): 8.5 µM
- CC50 (SK-MEL-28): 9.6 µM
- CC50 (RXF 393): 6.3 µM
- CC50 (SK-MEL-2): 8.1 µM
- CC50 (M14): 6.5 µM
- CC50 (MALME-3M): 8.3 µM
- CC50 (LOX IMVI): 9.7 µM
- IC50 (A2780): 0.47 µM
- IC50 (A2780cisR; [3]): 0.66 µM

Compound: C=C1C[C@H]2C=Nc3cc(OCc4ccccc4)c(OC)cc3C(=O)N2C1 [UP2004 (70), (11aS)-8-Benzyloxy-7-methoxy-2-methylidene-1,2,3,11a-tetrahydro-5H-pyrrolo[2,1-c][1,4]benzodiazepin-5-one]
- IC50 (CH1cisR): 0.082 µM
- IC50 (SKOV-3): 0.35 µM
- IC50 (CH1; [2]): 0.017 µM
- CC50 (MDA-N): 9 µM
- CC50 (UACC-257): 7.3 µM
- CC50 (COLO 205): 3.9 µM
- CC50 (SK-MEL-5): 7.8 µM
- CC50 (HCC-2998): 5.5 µM
- CC50 (NCI-H23): 7.6 µM
- CC50 (UACC-62): 5.3 µM
- Total score ([1]; combined IP+SC score): 18
- IP score ([1]; intraperitoneal fibres, 2 points per dose giving 50% or greater reduction in viable cell mass): 8
- SC score ([1]; subcutaneous fibres, 2 points per dose giving 50% or greater reduction in viable cell mass): 10
- IC50 (A2780): 0.029 µM
- IC50 (A2780cisR; [3]): 0.2 µM

Compound: C=C1C[C@H]2C=Nc3ccc(I)cc3C(=O)N2C1 [UP2023 (64), (11as)-7-Iodo-2-methylidene-1,2,3,11a-tetrahydro-5H-pyrrolo[2,1-c][1,4]benzodiazepin-5-one]
- IC50 (CH1cisR): 0.43 µM
- IC50 (SKOV-3): 16 µM
- IC50 (CH1; [2]): 0.37 µM
- CC50 (MDA-N): 6.6 µM
- CC50 (KM12; KM12, 48 h, read-out: LC50): 7.1 µM
- CC50 (MDA-MB-435): 7.6 µM
- CC50 (NCI-H522): 5.2 µM
- CC50 (SK-MEL-28): 8.4 µM
- CC50 (COLO 205): 5.8 µM
- CC50 (RXF 393): 6.1 µM
- CC50 (SK-MEL-2): 7.4 µM
- CC50 (SK-MEL-5): 6 µM
- CC50 (HCC-2998): 7 µM
- CC50 (SF-539): 9.4 µM
- CC50 (MALME-3M): 7.8 µM
- CC50 (UACC-62): 7.2 µM
- CC50 (NCI-H226): 9.1 µM
- IC50 (A2780): 0.49 µM
- IC50 (A2780cisR; [3]): 1.45 µM

From US7049311B1, “Pyrrolbenzodiazepines” (Spirogen Limited, priority 1998, dated 2006)
